Experimental data published in article PMC12677653, “Inhibition of Tumor Lipogenesis and Growth by Peptide‐Based Targeting of SREBP Activation” (Advanced Science, 2025).

Legend:
[1] = Safety in mice: H&E staining of organs and blood examination; type: in vivo; conditions: given iv as LNPs, 10 mg/kg
Experimental: c-k) The LNP@Insig1/2 loop 1 peptide or PBS (control) was administered intravenously to 6-week-old nude mice (n = 4 per group) at a dose of 10 mg kg^-1 body weight. (c)Mice heart, liver, spleen, lung and kidney were harvested for H&E staining (scale bar: 50 μm). Mouse blood was collected for (d) ALT, (e) AST, (f) ALB, (g) ALP, (h) BUN, (i) UA, (j) CR, (k) CK analysis. ALT, alanine aminotransferase; AST, aspartate transaminase; ALB, albumin; ALP, alkaline phosphatase; BUN, blood urea nitrogen; UA, uric acid; CR, creatinine; CK, creatine kinase. Data are expressed as mean ± SD. Comparisons between the two groups were performed using Student's t-test.

tumor cell apoptosis = experiment: TUNEL assay of tumor tissues; type: in vivo, BALB/c athymic nude mice; conditions: cryosections of Huh7 tumors, n = 4; peptide given as LNP 10 mg/kg iv; lenvatinib mesylate 2 mg/kg oral
Experimental: Representative micrographs are shown (scale bar: 20 µm). b,c) Cryosections of mouse tumor tissues were prepared for histological analysis. (b) Lipid accumulation was assessed by Oil Red O staining. Representative micrographs are shown (scale bar: 20 µm). (c) Apoptotic cells were detected by TUNEL assay. Representative micrographs are shown (scale bar: 20 µm). d,e) Quantitative analysis of (d) apoptotic areas (TUNEL‐positive regions) and (e) lipid droplet counts (Oil Red O‐positive particles) was performed. Data represent the mean ± SD (n = 4). Statistical significance was determined by one‐way analysis of variance (ANOVA). ** p < 0.01, **** p < 0.0001, ns, no significance.
Mouse tumor tissues were sectioned at 5 µm thickness. Apoptotic cells were counted using the colorimetric TUNEL System (Beyotime, C1091) according to the manufacturer's instructions. The total numbers of apoptotic cells were counted in six high‐power fields and presented as an average number of apoptotic cells per high‐power fields.

[2] = test system: SREBP1/SREBP2 target genes; experiment: Quantitative PCR of SREBP target genes in Huh7 cells; type: cell-based, human; conditions: peptide 15 μM, IGF1 100 ng/mL 10 h, qPCR, n = 3
Experimental: Figure 1 The Insig1/2 loop 1 peptide binds to S90‐phosphorylated PCK1 and blocks PCK1‐mediated SREBP activation and tumor cell proliferation. Immunoblotting analyses were performed using the indicated antibodies; representative results from three independent experiments are shown (IP, immunoprecipitation; WB, western blot). a) Huh7 cells expressing various Insig1 (top) or Insig2 (bottom) truncation mutants were treated with or without IGF1 (100 ng mL^−1) for 1 h. b,c) Biolayer interferometry assays (Sartorius Octet) were employed to measure the binding affinity of Insig1/2 loop 1 peptide to GST‐PCK1 or GST‐PCK1 pS90 proteins. Data represent three independent experiments. d) Flag‐PCK1‐expressing Huh7 cells were pretreated with Insig1/2 loop 1 peptide (15 µM) for 1 h before IGF1 (100 ng mL^−1) stimulation. e) Huh7 cells were pretreated with low (7.5 µM) or high (15 µM) concentrations of Insig1/2 loop 1 peptide for 1 h before IGF1 (100 ng mL^−1) stimulation. f) Huh7 cells transiently transfected with β‐galactosidase and SRE‐driven luciferase reporter vectors were pretreated with Insig1/2 loop 1 peptide (15 µM) for 1 h, followed by stimulation with or without IGF1 (100 ng mL^−1) for 14 h. SRE luciferase activity was normalized to β‐galactosidase activity. Data represent the mean ± SD (n = 3). Statistical significance was determined by one‐way analysis of variance (ANOVA). g) Following pretreatment with Insig1/2 loop 1 peptide (15 µM) and IGF1 stimulation (100 ng mL^−1, 8 h), Huh7 cells were subjected to immunofluorescence analysis (scale bar: 10 µm). h) Quantitative PCR analysis of SREBP1 target gene GPAM in Huh7 cells pretreated with Insig1/2 loop 1 peptide (15 µM) and stimulated with IGF1 (100 ng mL^−1) for 10 h. Data represent the mean ± SD (n = 3). Statistical significance was determined by one‐way analysis of variance (ANOVA). i) Quantitative PCR analysis of SREBP1 target gene FASN in Huh7 cells pretreated with Insig1/2 loop 1 peptide (15 µM) and stimulated with IGF1 (100 ng mL^−1) for 10 h. Data represent the mean ± SD (n = 3). Statistical significance was determined by one‐way analysis of variance (ANOVA). j) Intracellular triglyceride (TG) content was quantified in Huh7 cells pretreated with Insig1/2 loop 1 peptide (25 µM) and stimulated with IGF1 (100 ng mL^−1) for 24 h. […] Statistical significance was determined by one‐way analysis of variance (ANOVA). k) Cell proliferation was assessed by automated cell counting after 72 h of IGF1 stimulation (100 ng mL^−1) in Huh7 cells pretreated with Insig1/2 loop 1 peptide (25 µM) for 1 h. […] Statistical significance was determined by one‐way analysis of variance (ANOVA). l) FLAG‐Insig1, Flag‐Insig1 S207A or FLAG‐ Insig1 S207D was expressed in Huh7 cells with depletion of Insig1 by expressing Insig1 shRNA. […]

## RKKRRQRRRLYPCIDSHLGEPHKFKRE [Insig1/2 loop 1 peptide]
[1]
  toxicity (overall conclusion): limited toxicity
Tumor cell apoptosis
  cell apoptosis in tumor tissues (TUNEL): induced cell apoptosis in tumor tissues
[2]
  SREBP2-mediated expression of HMGCS1: suppressed
  SREBP2-mediated expression of LDLR: suppressed
  expression of FASN: markedly inhibited
  expression of GPAM: markedly inhibited
